Data taken from patent US9790169B2, “IDO inhibitors” (BRISTOL-MYERS SQUIBB COMPANY, priority 2015, dated 2017).

Molecular target: human IDO1 (Homo sapiens, UniProt P14902)
Experiment: Assessment of human IDO-1 inhibitory activity in HEK cells (human IDO1/HEK293 cells, kynurenine read-out with Ehrlich reagent, absorbance 490 nm)
Type: cell-based
Design: expressed in transfected cells
Details: HEK Human IDO-1 cellular assay
Procedure, shortened: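 HEK293 cells stably expressing human IDO1 were seeded at 10,000 per well in phenol red-free RPMI with 10% FBS, treated with compound for 20 h at 37 °C. Kynurenine was measured after TCA (0.2% final) and 30 min at 50 °C, using Ehrlich reagent, A490. IC50 normalised to DMSO (0%) and 500 nM reference standard (100%).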

human IDO1, sequence (P14902 whole entry): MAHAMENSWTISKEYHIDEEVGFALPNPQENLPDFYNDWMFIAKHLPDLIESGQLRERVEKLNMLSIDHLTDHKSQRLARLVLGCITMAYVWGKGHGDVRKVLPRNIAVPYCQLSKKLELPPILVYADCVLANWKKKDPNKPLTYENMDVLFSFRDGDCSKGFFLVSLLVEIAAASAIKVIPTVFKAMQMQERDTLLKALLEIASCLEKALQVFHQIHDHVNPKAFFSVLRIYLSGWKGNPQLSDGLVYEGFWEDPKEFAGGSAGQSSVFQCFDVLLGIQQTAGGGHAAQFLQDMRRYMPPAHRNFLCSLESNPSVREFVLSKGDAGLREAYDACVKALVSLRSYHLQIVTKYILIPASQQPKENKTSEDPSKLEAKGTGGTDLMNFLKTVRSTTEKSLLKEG

Row | SMILES | IC50 [nM]
1 | COCC(CC(=O)O)c1ccc(N(CC2CC2)C2CCOCC2)c(Nc2ccc(Cl)c(OCC(F)F)c2)c1 (single isomer, unassigned) [Example 684, 3-(3-((4-chloro-3-(2,2-difluoroethoxy)phenyl)amino)-4-((cyclopropylmethyl) (tetrahydro-2H-pyran-4-yl)amino)phenyl)-4-methoxybutanoic acid] | < 50
2 | CC[C@@H](CC(=O)O)c1ccc(N(CC)C2CCOCC2)c(Nc2ccn3nc(C)c(F)c3c2)c1 (single isomer, unassigned) [Example 470] | < 50
3 | CC[C@@H](CC(=O)O)c1ccc(N(CC(C)(C)O)C2CCCCC2)c(Nc2ccc(C#N)cc2)c1 (single isomer, unassigned) [Example 227] | < 5
4 | CCC(CC(=O)O)c1ccc(N(CC(C)C)C(C)C)c(Nc2ccc(Cl)cc2)c1 (single isomer, unassigned) [Example 727, 3-(3-((4-Chlorophenyl)amino)-4-(isobutyl(isopropyl)amino)phenyl)pentanoic acid] | < 5
5 | CCC(CC(=O)O)c1ccc(N(CC2CC2)C2CCOCC2)c(Nc2ccc3c(c2)OC(F)(F)O3)c1 (single isomer, unassigned) [Example 704, 3-(4-((cyclopropylmethyl) (tetrahydro-2H-pyran-4-yl)amino)-3-((2,2-difluorobenzo[d][1,3]dioxol-5-yl)amino)phenyl) pentanoic acid] | < 50
6 | CCc1cnc(Nc2cc([C@@H](CC)CC(=O)O)ccc2N(CC)C2CCOCC2)nc1 (single isomer, unassigned) [Example 457] | < 50
7 | CC[C@H](CC(=O)O)c1ccc(N2CCOC[C@@H]2C(C)C)c(Nc2ccc(Cl)cc2)c1 (single isomer, unassigned) [Example 89] | < 5
8 | CC[C@@H](CC(=O)O)c1ccc(N(CC)C2CCOCC2)c(NC(=O)Nc2ccc3c(c2)CS(=O)(=O)C3)c1 (single isomer, unassigned) [Example 496] | > 50
9 | CCC(CC(=O)O)c1ccc(N(CC)C2CCOCC2)c(NC(=O)Nc2cnc(C)nc2)c1 (single isomer, unassigned) [Example 488 Enantiomer 1, 3-(4-(Ethyl(tetrahydro-2H-pyran-4-yl)amino)-3-(3-(2-methylpyrimidin-5-yl)ureido)phenyl)pentanoic acid] | > 50
10 | CC[C@H](CC(=O)O)c1ccc(N(CC(C)C)C2CCS(=O)(=O)CC2)c(NC(=O)Nc2ccc(C)cc2)c1 (single isomer, unassigned) [Example 209] | > 50
11 | CCCN(CC1CC1)c1ccc(C(CC)CC(=O)O)cc1Nc1ccc2nc(C)sc2c1 (single isomer, unassigned) [Example 658, 3-(4-((cyclopropylmethyl) (propyl)amino)-3-((2-methylbenzo[d]thiazol-6-yl)amino)phenyl)pentanoic acid] | < 50
12 | CCc1ccc(Nc2cc(C(C)CC(=O)O)ccc2N2C[C@@H](C)O[C@@H](C)C2)cc1 (single isomer, unassigned) [Example 740] | > 50
13 | CCc1ccc(Nc2cc([C@H](CC)CC(=O)O)ccc2N2CCOC[C@@H]2C(C)C)cc1 (single isomer, unassigned) [Example 91] | < 50
14 | CC[C@@H](CC(=O)O)c1ccc(N(CC)C2CCOCC2)c(Nc2ccc(Cl)cc2)c1 (single isomer, unassigned) [Example 456] | < 5
15 | CCN(c1ccc([C@@H](COC)CC(=O)O)cc1NC(=O)Nc1cc(C)on1)C1CCOCC1 (single isomer, unassigned) [Example 428] | > 50

Results, then the compound that gave them:

Row | IC50 [nM] | SMILES
16 | < 5 | COCC(CC(=O)O)c1cc(F)c(N(CC(C)C)C2CCCCC2)c(NC(=O)Nc2ccc(Cl)cc2F)c1 (single isomer, unassigned) [Example 1156, 3-(3-(3-(4-chloro-2-fluorophenyl)ureido)-4-(cyclohexyl(isobutyl)amino)-5-fluorophenyl)-4-methoxybutanoic acid]
17 | < 50 | CCOc1ccc(NC(=O)Nc2cc(C(COC)CC(=O)O)cc(F)c2N(CC(C)C)C2CCCCC2)cc1 (single isomer, unassigned) [Example 1153, 3-(4-(cyclohexyl(isobutyl)amino)-3-(3-(4-ethoxyphenyl)ureido)-5-fluorophenyl)-4-methoxybutanoic acid]
18 | < 5 | CCC(CC(=O)O)c1cc(NC(=O)Nc2ccc(C)cc2)c(N(CC(C)C)CC(C)C)cc1F (single isomer, unassigned) [Example 1129, 3-(4-(Diisobutylamino)-2-fluoro-5-(3-(p-tolyl)ureido)phenyl)pentanoic acid]
19 | < 50 | Cc1cc(NC(=O)Nc2cc(C(CC(=O)O)C3CC3)ccc2N(CC(C)C)C2CCOCC2)no1 (single isomer, unassigned) [Example 1201 Enantiomer 1, 3-Cyclopropyl-3-(4-(isobutyl(tetrahydro-2H-pyran-4-yl)amino)-3-(3-(5-methylisoxazol-3-yl)ureido)phenyl)propanoic acid]
20 | > 50 | CC(C)CN(c1ccc(C(CC(=O)O)C2CC2)cc1NC(=O)Nc1cncnc1)C1CCOCC1 (single isomer, unassigned) [Example 1207 Enantiomer 1, 3-Cyclopropyl-3-(4-(isobutyl(tetrahydro-2H-pyran-4-yl)amino)-3-(3-(pyrimidin-5-yl)ureido)phenyl)propanoic acid]
21 | > 50 | CCC(CC(=O)O)c1ccc(N2CCC[C@H]2C(C)(C)F)c(NC(=O)Nc2ccc(Cl)cc2F)c1 (single isomer, unassigned) [Example 786]
22 | < 5 | CC[C@@H](CC(=O)O)c1ccc(N2CCC[C@H]2C(C)(C)F)c(Nc2ccc(Cl)cc2)c1 (single isomer, unassigned) [Example 788]
23 | < 50 | CCOc1ccc(CC(=O)Nc2cc(C(COC)CC(=O)O)ccc2N(CC(C)C)C2CCCCC2)cc1 (single isomer, unassigned) [Example 1241, 3-(4-(Cyclohexyl(isobutyl)amino)-3-(2-(4-ethoxyphenyl)acetamido)phenyl)-4-methoxybutanoic acid]
24 | < 50 | COCC(CC(=O)O)c1ccc(N(CC(C)C)C2CCCCC2)c(NC(=O)Nc2ccc(OC(F)(F)F)cc2)c1 (single isomer, unassigned) [Example 1243, 3-(4-(Cyclohexyl(isobutyl)amino)-3-(3-(4-(trifluoromethoxy)phenyl)ureido)phenyl)-4-methoxybutanoic acid]
25 | < 5 | COCC(CC(=O)O)c1cc(F)c(N(CC(C)C)CC(C)C)c(NC(=O)Nc2ccc(Cl)cc2F)c1 (single isomer, unassigned) [Example 1182, 3-(3-(3-(4-Chloro-2-fluorophenyl)ureido)-4-(diisobutylamino)-5-fluorophenyl)-4-methoxybutanoic acid]
26 | < 5 | CC(C)CN(c1ccc(C(CC(=O)O)C2CC2)cc1NC(=O)Nc1ccc(Cl)cc1F)C1CCOCC1 (single isomer, unassigned) [Example 1199 Enantiomer 1, 3-(3-(3-(4-Chloro-2-fluorophenyl)ureido)-4-(isobutyl(tetrahydro-2H-pyran-4-yl)amino)phenyl)-3-cyclopropylpropanoic acid]
27 | < 5 | CCOc1ccc(NC(=O)Nc2cc(C(CC)CC(=O)O)c(F)cc2N(CC(C)C)C2CCCCC2)c(F)c1 (single isomer, unassigned) [Example 1117, 3-(4-(Cyclohexyl(isobutyl)amino)-5-(3-(4-ethoxy-2-fluorophenyl)ureido)-2-fluorophenyl)pentanoic acid]
28 | < 5 | CCC(CC(=O)O)c1cc(F)c(N(CC(C)C)CC(C)C)c(NC(=O)Cc2ccc(F)cc2F)c1 (single isomer, unassigned) [Example 1093 E2]
29 | < 5 | CCC(CC(=O)O)c1ccc(N2CCC[C@@H]2C(C)(C)O)c(Nc2ccc(Cl)cc2)c1 (single isomer, unassigned) [Example 783]
30 | < 50 | Cc1cc(CC(=O)Nc2cc(C(CC(=O)O)C3CC3)ccc2N(CC(C)C)C2CCCCC2)no1 (single isomer, unassigned) [Example 1251, 3-(4-(Cyclohexyl(isobutyl)amino)-3-(2-(5-methylisoxazol-3-yl)acetamido)phenyl)-3-cyclopropylpropanoic acid]
31 | < 5 | CCC(CC(=O)O)c1cc(NC(=O)Nc2cnc(C)nc2)c(N(CC(C)C)C2CCCCC2)cc1F (single isomer, unassigned) [Example 1126, 3-(4-(Cyclohexyl(isobutyl)amino)-2-fluoro-5-(3-(2-methylpyrimidin-5-yl)ureido)phenyl)pentanoic acid]
32 | < 5 | CCc1ccc(Nc2cc(C(CC)CC(=O)O)ccc2N2CCOC[C@H]2C(C)C)cc1 (single isomer, unassigned) [Example 902]
33 | < 5 | COCC(CC(=O)O)c1cc(F)c(N(CC(C)C)C2CCCCC2)c(NC(=O)Nc2ccc(C)cc2)c1 (single isomer, unassigned) [Example 1155, 3-(4-(cyclohexyl(isobutyl)amino)-3-fluoro-5-(3-(p-tolyl)ureido)phenyl)-4-methoxybutanoic acid]
34 | < 50 | Cc1ccc(CC(=O)Nc2cc(C(C)CC(=O)O)ccc2N(CC(C)C)C2CCOCC2)cc1 (single isomer, unassigned) [Example 966, 3-(4-(Isobutyl(tetrahydro-2H-pyran-4-yl)amino)-3-(2-(p-tolyl)acetamido)phenyl)butanoic acid]
35 | < 50 | CCC(CC(=O)O)c1ccc(N2CCC[C@@H]2C(C)(C)O)c(Nc2ccc(Cl)cc2)c1 (single isomer, unassigned) [Example 773]
36 | < 50 | CCOc1ccc(NC(=O)Nc2cc(C(COC)CC(=O)O)ccc2N(CC(C)C)C2CCCCC2)c(F)c1 (single isomer, unassigned) [Example 1232, 3-(4-(Cyclohexyl(isobutyl)amino)-3-(3-(4-ethoxy-2-fluorophenyl)ureido)phenyl)-4-methoxybutanoic acid]
